COc1ccc(C(=O)O)c(OC)c1
solubility (mole fraction)
Conditions	288.15 K	293.15 K	298.15 K	303.15 K	308.15 K	313.15 K	318.15 K	323.15 K
in ethanol	0.0116	0.0149	0.0191	0.0244	0.0312	0.0398	0.0507	0.0644
in ethyl acetate	0.0165	0.0205	0.0253	0.0312	0.0382	0.0467	0.0567	0.0687
in isobutanol	0.0059	0.0079	0.0105	0.0139	0.0183	0.0239	0.0311	0.0401
in isopropanol	0.0059	0.0081	0.0109	0.0147	0.0195	0.0259	0.034	0.0445
in n-butanol	0.0086	0.0112	0.0146	0.0188	0.0242	0.0309	0.0393	0.0498
in n-propanol	0.0087	0.0114	0.015	0.0195	0.0252	0.0325	0.0417	0.0532
